Laboratory results from patent EP1614683B1, “Indazole compounds and pharmaceutical compositions for inhibiting protein kinases, and methods for their use” (priority 1999, dated 2001).
Where two headings read alike, the source gives them in different places.

How the values were obtained:
LCK tyrosine kinase = LCK tyrosine kinase (Homo sapiens, UniProt P06239, C224D/P223M); experiment: LCK spectrophotometric assay; type: biochemical; conditions: Table 1; compound concentration 1 µM; read-out: Lck-P* (% inhibition)
LCK tyrosine kinase, sequence (P06239 223-509 P223M/C224D): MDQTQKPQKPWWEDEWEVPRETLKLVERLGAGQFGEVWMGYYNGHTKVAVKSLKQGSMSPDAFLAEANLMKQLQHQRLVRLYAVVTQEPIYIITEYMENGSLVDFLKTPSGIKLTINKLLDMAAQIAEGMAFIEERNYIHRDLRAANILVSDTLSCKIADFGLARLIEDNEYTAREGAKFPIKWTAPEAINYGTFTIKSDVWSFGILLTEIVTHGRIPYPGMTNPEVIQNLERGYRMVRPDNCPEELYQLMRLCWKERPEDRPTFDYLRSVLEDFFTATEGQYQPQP
Protocol: The spectrophotometric assay was carried out as described above for VEGF-R2, except for the following changes in concentration: LCK = 60 nM, MgCl2 = 0 mM, poly(E4Y1) = 20 mM.

[1] = target: T1, phosphorylated Tie-2 (aa 775-1122) (Homo sapiens, UniProt Q02763); experiment: TIE-2 spectrophotometric assay; type: biochemical; conditions: Table 5; 1 µM; bold values spectrophotometric assay, non-bolded DELFIA assay (bold not visible here); read-out: % Inhibition @ 1 µM Tie2-P
T1 construct: 4 to 12 nM phosphorylated Tie-2 (aa 775-1122); made in house; host or cells: insect cells
T1 sequence (Q02763 775-1122): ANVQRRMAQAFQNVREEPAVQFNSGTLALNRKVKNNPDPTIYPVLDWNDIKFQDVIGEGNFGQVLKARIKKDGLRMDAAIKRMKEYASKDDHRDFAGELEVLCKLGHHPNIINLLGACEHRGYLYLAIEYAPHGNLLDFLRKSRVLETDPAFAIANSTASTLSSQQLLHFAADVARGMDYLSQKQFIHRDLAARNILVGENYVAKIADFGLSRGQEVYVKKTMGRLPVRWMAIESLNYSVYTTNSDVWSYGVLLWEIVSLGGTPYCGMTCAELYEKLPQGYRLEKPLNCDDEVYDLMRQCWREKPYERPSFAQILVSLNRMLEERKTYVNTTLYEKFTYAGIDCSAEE
Protocol: This construct also carries a R774M mutation, which serves as the initiating methionine residue in translation.
The kinase-catalyzed production of ADP from ATP that accompanies phosphoryl transfer to the random copolymer poly(Glu4 Tyr) was coupled to the oxidation of NADH through the activities of pyruvate kinase (PK) and lactate dehydrogenase (LDH). NADH conversion to NAD* was monitored by the decrease in absorbance at 340 nm (ε = 6.22 cm^-1mM^-1) using a Beckman DU650 spectrophotometer. Typical reaction solutions contained 1 mM phosphoenolpyruvate, 0.24 mM NADH, 40 mM MgCl2, 5 mM DTT, 2.9 mg/mL poly(Glu4Tyr), 0.5 mM ATP, 15 units/mL PK, 15 units/mL LDH in 100 mM HEPES, pH 7.5. […]

[2] = system: human umbilical vein endothelial cells (HUVEC); experiment: HUVEC proliferation assay (VEGF-stimulated, MTT); type: cell-based; conditions: Homo sapiens, HUVEC, Table 1
[3] = system: lung cancer cells (line MV522); experiment: Cancer cell proliferation (MV522) assay; type: cell-based
Protocol: The protocol for assessing cellular proliferation in cancer cells is similar to that used for assessments in HUVEC cells. Two thousand lung cancer cells (line MV522, acquired from American Tissue Cultural Collection) were seeded in growth media (RPMI1640 medium supplemented with 2 mM glutamine and 10% FBS). Cells are allowed to attach for 1 day prior to addition of test agents and /or vehicles. Cells are treated simultaneously with the same test agents used in the HUVEC assay. Cellular proliferation is quantified by MTT dye reduction assay 72 hours after exposure to test agents. The total length of the assay is 4 days vs. 5 for HUVEC cells because MV522 cells are not exposed to starvation medium.

[4] = system: VEGF dependent retinal vascular development; experiment: In vivo assay of retinal vascular development in neonatal rats; parameters: species or system rat; conditions: Model P8, intravitreal, 5 mg/ml
Protocol: The development of the retinal vascular in rats occurs from postnatal day 1 to postnatal day 14 (P1-P14). […] To assess the ability of specific compounds to inhibit the activity of VEGF in vivo, compounds were formulated in an appropriate vehicle, usually 50% polyethylene glycol, average molecular weight 400 daltons, and 50% solution of 300 mM sucrose in deionized water. […] Six days after the intravitreal injection, the animals were sacrificed and the retinas dissected free from the remaining ocular tissue. […] The individual retinas are then flat-mount onto glass slides and examined to determine the extent of vascularization. […] The amount of vessel regression was used to assess the relative potency of the compounds after in vivo administration.
For more quantitative analysis of regression, images of ADPase-stained, flat-mounted retinas were captured with a digital camera attached to a dissecting microscope. Retinal images were then imported into an image analysis software (Image Pro Plus 4.0, Media Cybernetics, Silver Spring, MD). The software was employed to determine the percentage of the area of the retina that contained stained vessels. This value for the experimental eye was compared to that measured for the vehicle injected, contralateral eye from the same animal. The reduction in the vascular area seen in the eye that received compound as compared to the vehicle-injected eye was then expressed as the "percent regression" for that sample.

[5] = system: VEGF dependent retinal neovascularization; experiment: Neonatal rat model of retinopathy of prematurity; type: in vivo; conditions: Model ROP, intravitreal, vehicle PEG/water 70:30
Protocol: A second model of VEGF dependent retinal neovascularization was employed to evaluate the activities of this series of compounds. […] The animals are exposed for 24 hours to a concentration of 50% oxygen followed by 24 hours at a concentration of 10% oxygen. This alternating cycle of hyperoxia followed by hypoxia is repeated 7 times after which the animals are removed to room air (P14). Compounds are administered via intravitreal injection upon removal to room air and the animals are sacrificed 6 days later (P20). The isolated retinas are then isolated, stained mounted and analyzed as detail above in the development model. The effectiveness was also graded as is described for the development model.

human FGF-R1 = human FGF-R1 (Homo sapiens, UniProt P11362, C488A/C584S/L457V); experiment: FGF-R spectrophotometric assay; type: biochemical; conditions: Table 1; compound concentration 1 µM; read-out: FGF-P* (% inhibition)
human FGF-R1, sequence (P11362 456-766 L457V/C488A/C584S): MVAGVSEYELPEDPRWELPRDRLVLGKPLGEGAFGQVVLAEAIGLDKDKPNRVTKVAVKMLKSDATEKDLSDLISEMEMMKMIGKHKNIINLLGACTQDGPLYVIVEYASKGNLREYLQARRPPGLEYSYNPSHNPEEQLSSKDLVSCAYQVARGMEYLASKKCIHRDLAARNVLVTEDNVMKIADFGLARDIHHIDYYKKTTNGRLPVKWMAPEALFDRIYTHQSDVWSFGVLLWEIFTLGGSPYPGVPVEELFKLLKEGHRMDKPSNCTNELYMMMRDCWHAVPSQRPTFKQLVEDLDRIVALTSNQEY
Protocol: The spectrophotometric assay was carried out as described above for VEGF-R2, except for the following changes in concentration: FGF-R = 50 nM, ATP = 2 mM, and poly(E4Y1) =15 mM.

in vivo = conditions: mouse, plasma, pH 2.3
in vitro = in vitro ADME, human; conditions: human liver microsomes, 5 µM test compound, 37 °C, 2 h
Outline: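 HLM diluted to 5 mg/mL in 100 mM KPO4, preincubated 10 min at 37 °C with NADPH-regenerating system. Compound (5 µM final) incubated at 37 °C in triplicate, sampled at 0 and 2 h into ice-cold acetonitrile, then LC-MS analysis.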

[6] = target: unphosphorylated VEGF-R2Δ50 (Homo sapiens, UniProt P35968, DEL940-989/E990V); experiment: biochemical; conditions: read-out: FLVK ** (% inhibition)
unphosphorylated VEGF-R2Δ50, sequence (P35968 with tags, fused parts or gaps DEL940-989/E990V limits assumed): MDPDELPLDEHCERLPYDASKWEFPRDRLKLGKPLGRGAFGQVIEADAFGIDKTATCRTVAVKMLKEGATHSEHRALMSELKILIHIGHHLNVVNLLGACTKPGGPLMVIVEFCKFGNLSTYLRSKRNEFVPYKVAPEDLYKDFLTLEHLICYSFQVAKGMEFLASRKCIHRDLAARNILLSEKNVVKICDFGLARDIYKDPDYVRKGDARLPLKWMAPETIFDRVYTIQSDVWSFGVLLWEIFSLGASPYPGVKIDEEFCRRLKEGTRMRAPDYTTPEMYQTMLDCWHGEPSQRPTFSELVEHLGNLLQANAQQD

[7] = MV522, Table 1, read-out: MV522 IC50
[8] = + albumin, read-out: HUVEC + albumin IC50
[9] = mouse, in vivo, ip, 25 mg/kg, pH 2.3
[10] = mouse, in vivo, po, 50 mg/kg, pH 2.3
[11] = IP, 25 mg/kg, vehicle PEG400:H2O pH 2.3 30:70
[12] = PO, 50 mg/kg, vehicle PEG400:H2O pH 2.3 30:70
[13] = PO, 50 mg/kg, vehicle PEG400:H2O pH 2.3 60:40

In the case of `Cc1cnc(C(=O)Nc2cccc(Oc3ccc4c(/C=C/c5ccccc5)n[nH]c4c3)c2)s1` [5(a), 5-Methyl-thiazole-2-carboxylic acid {3-(3-styryl-1H-indazol-6-yloxy)-phenyl]-amide], the inhibition at 1 µM (LCK tyrosine kinase) is reported as 28%, the inhibition at 1 µM [1] is reported as 44% and the IC50 ([2]; read-out: HUVEC IC50) is reported as 12 nM. The IC50 [3, 7] was 9.6 µM.

With `CC(=O)Nc1cccc(Sc2ccc3c(/C=C/c4ccccc4)n[nH]c3c2)c1` [20(a), 6-(3-Acetamido-phenylsulfanyl)-3-styryl-1H-indazole] the IC50 ([2]; read-out: HUVEC IC50) was 200 nM and the IC50 [3, 7] was 9.4 µM.

In the case of `CC(=O)Nc1cccc(N(C)c2ccc3c(/C=C/c4ccccc4)n[nH]c3c2)c1` [12(a), N-{3-[Methyl-(3-styryl-1H-indazol-6-yl)-amino]-phenyl]-acetamide], the inhibition at 1 µM (LCK tyrosine kinase) is reported as 17%, the IC50 [2, 8] is reported as 87 nM and the IC50 ([2]; read-out: HUVEC IC50) is reported as 6 nM. For the same compound, the IC50 [3, 7] was 2.1 µM.

For `C/C=C/C(=O)Nc1cccc(C(=O)c2ccc3c(/C=C/c4ccccn4)n[nH]c3c2)c1` [41 (c)], the “Initial Evaluation” value ([4]; vehicle PEG/water 50:50) was “++ (two pluses being judged to be approximately 25-75 % regression)”, the “% Inhibition” value ([5]; 1 mg/ml) was 16% and the “% Inhibition” value ([5]; 10 mg/ml) was 54%. For the same compound, the “Initial Evaluation” value ([5]; 10 mg/ml) was “+++ (three pluses give to retinas with near total regression (approximately 75% or greater))”, the AUCleast [9] was 3397 ng·h/mL and the T1/2 [9] was 1.7 h. It also gave an AUCleast [10] of 3182 ng·h/mL and a T1/2 [10] of 2.6 h.

`COc1cc(-c2ccc3c(-c4ccc5ccccc5c4)n[nH]c3c2)ccc1O` [2(a), 3-(Naphthalen-2-yl)-6-(3-methoxy-4-hydroxy-phenyl)-1H-indazole] showed an IC50 ([3]; MV522, read-out: MV522 IC50 (µM)) of 0.58 µM.

With `O=C(Nc1cccc(C(=O)c2ccc3c(-c4nc5cccnc5[nH]4)n[nH]c3c2)c1)c1ccccc1` [Example 42(d), 6-(3-benzamidobenzoyl)-3-(3H-imidazo[4,5-b]pyridin-2-yl)-1H-indazole] the IC50 [3, 7] was over 10 µM.

`O=C(c1cccc(NC(=O)c2cc(Cl)ccn2)c1)c1ccc2c(/C=C/c3ccccc3)n[nH]c2c1` [19(n), 6-[3-(4-chloropyridin-2-ylcarboxamido)benzoyl)-3-E-styryl-1H-indazole] gave an inhibition at 1 µM (human FGF-R1) of 48%, an inhibition at 1 µM (LCK tyrosine kinase) of 26% and an IC50 [2, 8] of 23 nM. It also gave an IC50 ([2]; read-out: HUVEC IC50) of 3.4 nM and an IC50 [3, 7] of 2.9 µM.

In the case of `CC(C)C(=O)Nc1cccc(C(=O)c2ccc3c(/C=C/c4ccccc4)n[nH]c3c2)c1` [19(h), 6-[3-(2-methylpropionamido)benzoyl]-3-E-styryl-1H indazole], the IC50 ([2]; read-out: HUVEC IC50) is reported as 600 nM and the IC50 [3, 7] is reported as 7.9 µM.

For `Cc1cc(C(=O)Nc2cccc(Oc3ccc4c(/C=C/c5ccccn5)n[nH]c4c3)c2)nn1C` [Reference Example 31(b), 6-[3-((1,5-Dimethyl-1H-pyrazol-3-yl)carboxamido)phenoxy]-3-E-[2-(pyridin-2-yl)ethenyl)-1H-indazole], the inhibition at 1 µM (human FGF-R1) was 97%, the inhibition at 1 µM (LCK tyrosine kinase) was 66% and the IC50 [2, 8] was 5.6 nM. The “% Inhibition” value ([4]; vehicle PEG/water 50:50) was 32%, the T1/2 [11] was 1.7 h and the T1/2 [12] was 1.0 h. It also gave an AUC (in vivo; ip, 25 mg/kg) of over 7040 ng·h/mL and an AUC (in vivo; po, 50 mg/kg) of 2070 ng·h/mL.

`CN(c1cccc(NC(=O)c2ccccc2)c1)c1ccc2c(/C=C/c3ccc4c(c3)OCO4)n[nH]c2c1` [16(a), N-(3-{[3-(2-Benzo[1,3]dioxol-5-yl-vinyl)-1H-indazol-6-yl]-methyl-amino}-phenyl)-benzamide] showed an inhibition at 1 µM (human FGF-R1) of 65%, an inhibition at 1 µM (LCK tyrosine kinase) of 28% and an inhibition at 1 µM [1] of 10%. It also gave an IC50 [2, 8] of 112 nM, an IC50 [3, 7] of 8 µM and a remaining at 2 h, 5 µM (in vitro; read-out: % remain (HLM, 2 h)) of 7%.

In the case of `O=C(c1cccc(NC(=O)c2ccccn2)c1)c1ccc2c(/C=C/c3ccccc3)n[nH]c2c1` [19(k), 6-[3-(pyridin-2-ylcarboxamido)benzoyl)-3-E-styryl-1H-indazole], the inhibition at 1 µM (human FGF-R1) is reported as 41%, the inhibition at 1 µM (LCK tyrosine kinase) is reported as 37% and the IC50 ([2]; read-out: HUVEC IC50) is reported as 2.6 nM. The IC50 [3, 7] was 4 µM, the “% remain (HLM, 2 h)” value (in vitro) was 58% and the T1/2 (IP, 25 mg/kg, vehicle PEG400:H2O pH 2.3 60:40) was 2.2 h. The “Cmin (7 hr conc.)” value [13] was 4 ng/mL, the T1/2 [13] was 2.2 h and the AUC (in vivo; ip, 25 mg/kg) was 428 ng·h/mL. For the same compound, the AUC (in vivo; po, 50 mg/kg) was 19 ng·h/mL and the inhibition at 0.05 µM [6] was 100%.

Compound `C=C(c1cccc(NC(=O)c2ccccc2)c1)c1ccc2c(/C=C/c3ccccc3)n[nH]c2c1` [22(b), 6-(1-(3-(Benzoylamido)phenyl)-vinyl)-3-styryl-1H-indazole] has an IC50 ([2]; read-out: HUVEC IC50) of 4.8 nM and an IC50 [3, 7] of 8.5 µM.

With `O=C(Nc1cccc(Oc2ccc3c(/C=C/c4ccccn4)n[nH]c3c2)c1)c1ccccc1` [Reference Example 31(a), 6-[3-benzamidophenoxy]-3-E-[2-(Pyridin-2-yl)ethenyl]-1H-indazole] the inhibition at 1 µM (human FGF-R1) was 95%, the inhibition at 1 µM (LCK tyrosine kinase) was 77% and the IC50 [2, 8] was 10 nM. The IC50 ([2]; read-out: HUVEC IC50) was 0.7 nM, the “% remain (HLM, 2 h)” value (in vitro) was 58% and the “% Inhibition” value ([4]; vehicle PEG/water 70:30) was 46%. For the same compound, the T1/2 [11] was 2.4 h, the T1/2 [12] was 1.6 h and the AUC (in vivo; ip, 25 mg/kg) was 47500 ng·h/mL. It also gave an AUC (in vivo; po, 50 mg/kg) of 40900 ng·h/mL.

With `O=C(Nc1cccc(Cl)c1)c1ccccc1Sc1ccc2c(/C=C/c3ccccn3)n[nH]c2c1` [Reference Example 33(d), 6-[2-(3-chlorophenylcarbamoyl)phenylsulfanyl]-3-E-[2-(pyridin-2-yl)ethenyl]-1H-indazole] the inhibition at 1 µM (LCK tyrosine kinase) was 55%, the IC50 [2, 8] was over 300 nM and the IC50 [3, 7] was 8 µM. The “% remain (HLM, 2 h)” value (in vitro) was 22%.

`O=C(c1cccc(NC(=O)c2cccc3[nH]ccc23)c1)c1ccc2c(/C=C/c3ccccc3)n[nH]c2c1` [19(f), 6-[3-(indol-4-ylcarboxamido)benzoyl]-3-E-styryl-1H-indazole] gave an inhibition at 1 µM (human FGF-R1) of 58%, an inhibition at 1 µM (LCK tyrosine kinase) of 52% and an IC50 [2, 8] of 16 nM. The IC50 ([2]; read-out: HUVEC IC50) was 2.3 nM, the IC50 [3, 7] was 3.9 µM and the “% remain (HLM, 2 h)” value (in vitro) was 98%.
